# According to ChEMBL document CHEMBL1133403 (Bioorg Med Chem Lett, 2000):
# How the values were obtained:
# [1] = biological target: T1, Androgen receptor (Homo sapiens, UniProt P10275); test: Cross-reactivity as binding to human androgen receptor (hAR); type: functional
# T1 sequence (P10275 whole entry): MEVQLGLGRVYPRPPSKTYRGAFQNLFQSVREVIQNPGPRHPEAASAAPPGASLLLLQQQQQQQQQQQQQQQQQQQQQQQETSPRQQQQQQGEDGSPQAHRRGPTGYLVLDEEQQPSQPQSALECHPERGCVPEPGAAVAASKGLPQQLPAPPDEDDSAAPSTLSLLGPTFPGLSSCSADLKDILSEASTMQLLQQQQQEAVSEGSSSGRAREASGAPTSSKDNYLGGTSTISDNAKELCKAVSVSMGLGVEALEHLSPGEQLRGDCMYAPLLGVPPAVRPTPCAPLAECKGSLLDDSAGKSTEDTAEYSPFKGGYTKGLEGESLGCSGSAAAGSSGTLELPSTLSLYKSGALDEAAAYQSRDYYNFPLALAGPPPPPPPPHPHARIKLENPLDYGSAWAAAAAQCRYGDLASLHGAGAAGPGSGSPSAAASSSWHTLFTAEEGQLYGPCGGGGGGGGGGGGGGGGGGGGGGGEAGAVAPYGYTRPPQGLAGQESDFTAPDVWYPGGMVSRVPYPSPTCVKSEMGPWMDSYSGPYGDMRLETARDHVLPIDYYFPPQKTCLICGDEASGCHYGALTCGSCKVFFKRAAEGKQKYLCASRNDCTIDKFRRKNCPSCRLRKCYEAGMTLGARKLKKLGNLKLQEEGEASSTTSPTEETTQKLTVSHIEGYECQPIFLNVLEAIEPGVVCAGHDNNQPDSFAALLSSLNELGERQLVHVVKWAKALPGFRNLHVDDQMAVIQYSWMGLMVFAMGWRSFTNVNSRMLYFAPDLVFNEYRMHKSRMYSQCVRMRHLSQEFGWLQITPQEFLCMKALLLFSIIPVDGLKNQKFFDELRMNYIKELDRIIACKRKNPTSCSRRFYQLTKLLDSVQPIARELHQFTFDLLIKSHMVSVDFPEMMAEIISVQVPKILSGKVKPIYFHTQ
# [2] = biological target: T2, Glucocorticoid receptor (Homo sapiens) (UniProt P04150); test: Percent inhibition of glucocorticoid receptor transcriptional activity at Dexamethasone EC50; type: functional
# T2 sequence (whole entry): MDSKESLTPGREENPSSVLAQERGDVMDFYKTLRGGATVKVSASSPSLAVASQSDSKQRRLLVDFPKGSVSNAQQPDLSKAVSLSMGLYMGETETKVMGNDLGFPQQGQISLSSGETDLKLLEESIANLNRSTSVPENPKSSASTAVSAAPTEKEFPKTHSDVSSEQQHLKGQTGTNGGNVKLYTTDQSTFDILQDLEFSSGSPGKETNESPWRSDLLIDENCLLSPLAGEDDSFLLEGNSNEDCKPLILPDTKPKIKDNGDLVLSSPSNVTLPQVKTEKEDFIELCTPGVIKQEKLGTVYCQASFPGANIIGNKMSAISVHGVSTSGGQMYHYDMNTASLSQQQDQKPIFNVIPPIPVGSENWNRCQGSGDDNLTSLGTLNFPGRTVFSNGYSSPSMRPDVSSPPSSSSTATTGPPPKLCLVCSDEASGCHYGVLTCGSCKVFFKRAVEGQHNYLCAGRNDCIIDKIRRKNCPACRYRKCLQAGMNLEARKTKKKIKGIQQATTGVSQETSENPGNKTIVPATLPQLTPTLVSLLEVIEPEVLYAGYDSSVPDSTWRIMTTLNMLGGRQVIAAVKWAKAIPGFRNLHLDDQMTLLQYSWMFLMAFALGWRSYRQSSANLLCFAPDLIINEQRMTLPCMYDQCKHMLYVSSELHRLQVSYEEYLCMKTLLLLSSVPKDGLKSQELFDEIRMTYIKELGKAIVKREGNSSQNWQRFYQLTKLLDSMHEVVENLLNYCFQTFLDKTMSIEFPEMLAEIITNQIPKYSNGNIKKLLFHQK
# [3] = biological target: T3, Glucocorticoid receptor (Homo sapiens, UniProt P04150); test: Cross-reactivity as binding to human glucocorticoid receptor (hGR); type: functional
# T3 sequence (P04150 whole entry): T2 sequence (whole entry)
# [4] = biological target: T4, Mineralocorticoid receptor (Homo sapiens, UniProt P08235); test: Cross-reactivity as binding to human mineralocorticoid receptor (hMR); type: functional
# T4 sequence (P08235 whole entry): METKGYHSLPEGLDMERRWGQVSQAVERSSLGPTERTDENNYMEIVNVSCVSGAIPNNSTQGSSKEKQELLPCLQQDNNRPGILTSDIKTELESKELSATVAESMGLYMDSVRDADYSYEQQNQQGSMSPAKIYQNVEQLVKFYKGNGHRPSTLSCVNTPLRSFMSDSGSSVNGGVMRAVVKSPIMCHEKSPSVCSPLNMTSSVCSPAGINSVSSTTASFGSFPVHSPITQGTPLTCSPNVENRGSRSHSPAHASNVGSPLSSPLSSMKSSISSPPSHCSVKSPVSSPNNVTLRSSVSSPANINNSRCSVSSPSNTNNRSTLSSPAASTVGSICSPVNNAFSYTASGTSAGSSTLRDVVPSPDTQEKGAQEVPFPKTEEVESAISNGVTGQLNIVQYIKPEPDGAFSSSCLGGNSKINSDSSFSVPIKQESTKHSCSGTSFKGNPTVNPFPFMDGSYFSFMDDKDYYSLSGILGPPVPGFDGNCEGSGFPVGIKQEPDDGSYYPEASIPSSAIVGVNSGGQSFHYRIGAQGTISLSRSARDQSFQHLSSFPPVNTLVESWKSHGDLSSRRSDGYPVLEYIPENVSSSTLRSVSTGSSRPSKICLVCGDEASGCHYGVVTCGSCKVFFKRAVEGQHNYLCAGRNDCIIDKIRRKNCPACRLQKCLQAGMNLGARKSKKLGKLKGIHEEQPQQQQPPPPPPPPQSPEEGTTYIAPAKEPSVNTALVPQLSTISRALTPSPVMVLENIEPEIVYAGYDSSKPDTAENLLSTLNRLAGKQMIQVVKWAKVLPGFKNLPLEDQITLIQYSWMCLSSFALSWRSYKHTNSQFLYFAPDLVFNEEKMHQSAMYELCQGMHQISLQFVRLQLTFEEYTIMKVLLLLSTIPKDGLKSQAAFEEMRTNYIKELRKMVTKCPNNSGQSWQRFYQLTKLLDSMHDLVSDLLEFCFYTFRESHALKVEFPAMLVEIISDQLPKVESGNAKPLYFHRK
# [5] = biological target: T5, Mineralocorticoid receptor (Homo sapiens) (UniProt P08235); test: Percent inhibition of mineralocorticoid receptor transcriptional activity at aldosterone EC50; type: functional
# T5 sequence (whole entry): T4 sequence (P08235 whole entry)
# [6] = biological target: T6, Progesterone receptor (Homo sapiens, UniProt P06401); test: Human progesterone receptor (hPR) agonist activity in T47D human breast cancer cell line; type: functional, cell-based
# T6 sequence (P06401 whole entry): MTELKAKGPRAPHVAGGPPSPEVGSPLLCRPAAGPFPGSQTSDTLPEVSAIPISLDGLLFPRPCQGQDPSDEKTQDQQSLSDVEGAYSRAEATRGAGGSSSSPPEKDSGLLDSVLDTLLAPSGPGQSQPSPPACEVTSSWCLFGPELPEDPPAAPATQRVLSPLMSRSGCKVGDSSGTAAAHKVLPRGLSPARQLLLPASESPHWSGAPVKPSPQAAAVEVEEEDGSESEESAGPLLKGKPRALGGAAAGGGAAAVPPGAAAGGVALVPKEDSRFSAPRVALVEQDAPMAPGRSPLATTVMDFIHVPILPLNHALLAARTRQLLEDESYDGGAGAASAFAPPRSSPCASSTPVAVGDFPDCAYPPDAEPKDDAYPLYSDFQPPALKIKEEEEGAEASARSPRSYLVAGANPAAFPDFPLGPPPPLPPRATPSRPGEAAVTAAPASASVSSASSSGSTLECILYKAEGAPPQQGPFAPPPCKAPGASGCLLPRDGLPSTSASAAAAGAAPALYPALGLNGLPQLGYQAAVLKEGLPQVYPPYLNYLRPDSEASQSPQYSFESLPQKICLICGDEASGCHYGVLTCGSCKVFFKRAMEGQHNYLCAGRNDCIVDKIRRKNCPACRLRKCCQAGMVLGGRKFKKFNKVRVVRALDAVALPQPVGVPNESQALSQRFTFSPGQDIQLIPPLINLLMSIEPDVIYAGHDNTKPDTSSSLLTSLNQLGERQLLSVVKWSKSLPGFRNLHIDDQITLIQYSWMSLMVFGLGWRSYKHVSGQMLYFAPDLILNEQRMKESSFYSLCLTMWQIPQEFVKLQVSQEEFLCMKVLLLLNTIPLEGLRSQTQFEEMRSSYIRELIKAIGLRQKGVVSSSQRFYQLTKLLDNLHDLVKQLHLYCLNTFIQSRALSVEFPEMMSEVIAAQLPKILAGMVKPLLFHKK
# [7] = biological target: T6, Progesterone receptor; test: Human progesterone receptor (hPR) agonist activity expressed in CV-1 cells; type: functional, cell-based
# [8] = biological target: T6, Progesterone receptor; test: Antagonist activity against human progesterone receptor (hPR) in T47D human breast cancer cell line; type: functional, cell-based
# [9] = biological target: T6, Progesterone receptor; test: Binding affinity against human progesterone receptor (hPR) in a competitive binding assay
smiles,measurement,setting,value
CC1=CC(C)(C)Nc2ccc(-c3csc(C#N)c3)cc21,IC50,[1],494 nM
same,Efficacy,[2],83%
same,IC50,[3],2600 nM
same,IC50,[4],2050 nM
same,Efficacy,[5],88%
same,EC50,[6],245 nM
same,EC50,[7],1800 nM
same,IC50,[8],106 nM
same,Ki,[9],3.5 nM
